For 12 compounds, inhibition results are on record in EP4667466A1, “PROTAC DEGRADERS OF MLLT1 AND/OR MLLT3” (priority 2024, dated 2025).

The assay concerns the target T1, MLLT1 (Homo sapiens, UniProt Q03111).
T1 construct: endogenous in cells; host or cells: MV4-11 (ATCC CRL-9591)
T1 sequence (Q03111 1-559): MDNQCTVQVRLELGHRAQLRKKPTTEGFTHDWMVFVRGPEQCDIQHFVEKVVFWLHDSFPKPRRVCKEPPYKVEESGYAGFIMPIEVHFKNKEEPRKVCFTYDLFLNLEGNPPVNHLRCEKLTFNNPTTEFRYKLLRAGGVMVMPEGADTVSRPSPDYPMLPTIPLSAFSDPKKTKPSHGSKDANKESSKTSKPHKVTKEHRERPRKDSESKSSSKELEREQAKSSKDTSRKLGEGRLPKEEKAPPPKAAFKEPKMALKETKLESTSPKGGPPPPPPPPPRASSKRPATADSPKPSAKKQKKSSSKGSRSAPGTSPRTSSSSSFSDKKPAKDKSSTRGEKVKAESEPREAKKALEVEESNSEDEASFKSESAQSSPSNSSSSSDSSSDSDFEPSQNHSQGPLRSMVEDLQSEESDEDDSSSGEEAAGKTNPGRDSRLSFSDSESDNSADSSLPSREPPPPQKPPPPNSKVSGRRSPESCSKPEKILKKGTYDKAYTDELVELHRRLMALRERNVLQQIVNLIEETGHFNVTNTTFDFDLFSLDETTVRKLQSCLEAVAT
Kind of assay: MLLT1 degradation assay (JESS automated chemiluminescent detection) in MV4-11 cells. It is filed as cell-based. As to conditions: 24h, with respect to DMSO control. In a few lines:
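MV4-11 cells were treated with 1000, 100 or 10 nM compound (0.1% DMSO) for 24 h at 37 °C. Lysates (4 µg protein) were probed for MLLT1 and GAPDH by JESS capillary chemiluminescence. Degradation was calculated from band peak areas versus DMSO control and binned into categories A–D.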

Compound `Cc1nn(CCCCCCCCNc2cccc3c2C(=O)N(C2CCC(=O)NC2=O)C3=O)c2cc(C(=O)Nc3cc4[nH]c([C@H]5CCCN5C)c(Cl)c4cn3)ccc12` (stereo partly drawn) [Example 18, N-(3-chloro-2-((R)-1-methylpyrrolidin-2-yl)-1H-pyrrolo[3,2-c]pyridin-6-yl)-1-(8-((2-(2,6-dioxopiperidin-3-yl)-1,3-dioxoisoindolin-4-yl)amino)octyl)-3-methyl-1H-indazole-6-carboxamide] gave an inhibition at 0.01 µM of at least 75%, an inhibition at 0.1 µM of at least 75% and an inhibition at 1 µM of at least 75%.

`Cc1nn(CCCOCC#Cc2cccc3c2CN(C2CCC(=O)NC2=O)C3=O)c2cc(C(=O)Nc3cc4[nH]c([C@H]5CCCN5C)cc4cn3)ccc12` (stereo partly drawn) [Example 31, 1-(3-((3-(2-(2,6-dioxopiperidin-3-yl)-1-oxoisoindolin-4-yl)prop-2-yn-1-yl)oxy)propyl)-3-methyl-N-(2-((R)-1-methylpyrrolidin-2-yl)-1H-pyrrolo[3,2-c]pyridin-6-yl)-1H-indazole-6-carboxamide]: the inhibition at 0.01 µM was in the range of 25 to 50%, the inhibition at 0.1 µM lay within 50 to 75% and the inhibition at 1 µM is at least 75%.

In the case of `Cc1nn(CCCCCCCC#Cc2cccc(N3CCC(=O)NC3=O)c2F)c2cc(C(=O)Nc3cc4[nH]c([C@H]5CCCN5C)cc4cn3)ccc12` [Example 63, (R)-1-(9-(3-(2,4-dioxotetrahydropyrimidin-1(2H)-yl)-2-fluorophenyl)non-8-yn-1-yl)-3-methyl-N-(2-(1-methylpyrrolidin-2-yl)-1H-pyrrolo [3,2-c]pyridin-6-yl)-1H-indazole-6-carboxamide], the inhibition at 0.01 µM was below 25%, the inhibition at 0.1 µM lay in the range of 50 to 75% and the inhibition at 1 µM is at least 75%.

Compound `Cc1nn(C2CCN(CC3CCN(c4ccc5c(c4)C(=O)N(C4CCC(=O)NC4=O)C5=O)CC3)CC2)c2cc(C(=O)Nc3cc4[nH]c([C@H]5CCCN5C)cc4cn3)ccc12` (stereo partly drawn) [Example 70, 1-(1-((1-(2-(2,6-dioxopiperidin-3-yl)-1,3-dioxoisoindolin-5-yl)piperidin-4-yl)methyl)piperidin-4-yl)-3-methyl-N-(2-((R)-1-methylpyrrolidin-2-yl)-1H-pyrrolo[3,2-c]pyridin-6-yl)-1H-indazole-6-carboxamide] showed an inhibition at 0.01 µM of at least 75%, an inhibition at 0.1 µM of at least 75% and an inhibition at 1 µM of at least 75%.

The compound `Cc1nn(CCCCCCCC#Cc2cc3c(cc2F)c(N2CCC(=O)NC2=O)nn3C)c2cc(C(=O)Nc3cc4[nH]c([C@H]5CCCN5C)cc4cn3)ccc12` [Example 65, (R)-1-(9-(3-(2,4-dioxotetrahydropyrimidin-1(2H)-yl)-5-fluoro-1-methyl-1H-indazol-6-yl)non-8-yn-1-yl)-3-methyl-N-(2-(1-methylpyrrolidin-2-yl)-1H-pyrrolo[3,2-c]pyridin-6-yl)-1H-indazole-6-carboxamide] registered an inhibition at 0.01 µM of 25 to 50%, an inhibition at 0.1 µM of 50 to 75% and an inhibition at 1 µM of at least 75%.

Take `Cc1nn(CCCCCCCC#Cc2cccc3c2CN(C2CCC(=O)NC2=O)C3=O)c2cc(C(=O)Nc3cc4[nH]c([C@H]5CCCN5C)c(C#N)c4cn3)ccc12` (stereo partly drawn) [Example 66, N-(3-cyano-2-((R)-1-methylpyrrolidin-2-yl)-1H-pyrrolo[3,2-c]pyridin-6-yl)-1-(9-(2-(2,6-dioxopiperidin-3-yl)-1-oxoisoindolin-4-yl)non-8-yn-1-yl)-3-methyl-1H-indazole-6-carboxamide]: the inhibition at 0.01 µM was at least 75%, the inhibition at 0.1 µM is at least 75% and the inhibition at 1 µM was at least 75%.

`Cc1c(OCCCCCCCCn2nc(C)c3ccc(C(=O)Nc4cc5[nH]c([C@H]6CCCN6C)cc5cn4)cc32)cccc1N1CCC(=O)NC1=O` [Example 9, 1-{8-[3-(2,4-dioxo-1,3-diazinan-1-yl)-2-methylphenoxy]octyl}-3-methyl-N-{2-[(2R)-1-methylpyrrolidin-2-yl]-1H-pyrrolo[3,2-c]pyridin-6-yl}indazole-6-carboxamide]: the inhibition at 0.01 µM is below 25%, the inhibition at 0.1 µM lay within 25 to 50% and the inhibition at 1 µM is at least 75%.

In turn, `CN1CCC[C@@H]1c1cc2cnc(NC(=O)c3ccc4c(C5CC5)nn(CCCCCCCC#Cc5cccc6c5CN(C5CCC(=O)NC5=O)C6=O)c4c3)cc2[nH]1` (stereo partly drawn) [Example 59, 3-cyclopropyl-1-(9-(2-(2,6-dioxopiperidin-3-yl)-1-oxoisoindolin-4-yl)non-8-yn-1-yl)-N-(2-((R)-1-methylpyrrolidin-2-yl)-1H-pyrrolo [3,2-c]pyridin-6-yl)-1H-indazole-6-carboxamide] had an inhibition at 0.01 µM of at least 75%, an inhibition at 0.1 µM of at least 75% and an inhibition at 1 µM of at least 75%.

Regarding `Cc1nn(CC#Cc2cccc3c2CN(C2CCC(=O)NC2=O)C3=O)c2cc(C(=O)Nc3cc4[nH]c([C@H]5CCCN5C)cc4cn3)ccc12` (stereo partly drawn) [Example 72, 1-(3-(2-(2,6-dioxopiperidin-3-yl)-1-oxoisoindolin-4-yl)prop-2-yn-1-yl)-3-methyl-N (2-((R)-1-methylpyrrolidin-2-yl)-1H pyrrolo[3,2-c]pyridin-6-yl)-1H-indazole-6-carboxamide], the inhibition at 0.01 µM is at least 75%, the inhibition at 0.1 µM is at least 75% and the inhibition at 1 µM lay in the range of 50 to 75%.

Compound `Cc1nn(CCCCCCCC#Cc2cccc3c2CN(C2CCC(=O)NC2=O)C3=O)c2cc(C(=O)Nc3cc4[nH]c([C@H]5CC6(CC6)CN5C)cc4cn3)ccc12` (stereo in doubt) [Example 56, 1-(9-(2-(2,6-dioxopiperidin-3-yl)-1-oxoisoindolin-4-yl)non-8-yn-1-yl)-3-methyl-N-(2-((rel-R)-5-methyl-5-azaspiro[2.4]heptan-6-yl)-1H-pyrrolo[3,2-c]pyridin-6-yl)-1H-indazole-6-carboxamide] displayed an inhibition at 0.01 µM of at least 75%, an inhibition at 0.1 µM of at least 75% and an inhibition at 1 µM of at least 75%.

Compound `Cc1nn(CCCCCN2CCN(c3cc4c(cc3F)C(=O)N(C3CCC(=O)NC3=O)C4=O)CC2)c2cc(C(=O)Nc3cc4[nH]c([C@H]5CCCN5C)cc4cn3)ccc12` (stereo partly drawn) [Example 23, 1-(5-(4-(2-(2,6-dioxopiperidin-3-yl)-6-fluoro-1,3-dioxoisoindolin-5-yl)piperazin-1-yl)pentyl)-3-methyl-N-(2-((R)-1-methylpyrrolidin-2-yl)-1H-pyrrolo[3,2-c]pyridin-6-yl)-1H-indazole-6-carboxamide] came in with an inhibition at 0.01 µM of at least 75%, an inhibition at 0.1 µM of at least 75% and an inhibition at 1 µM of at least 75%.

`Cc1nn(CCCCCC#Cc2cccc3c2C(=O)N(C2CCC(=O)NC2=O)C3=O)c2cc(C(=O)Nc3cc4[nH]c([C@H]5CCCN5C)cc4cn3)ccc12` (stereo partly drawn) [Example 33, 1-(7-(2-(2,6-dioxopiperidin-3-yl)-1,3-dioxoisoindolin-4-yl)hept-6-yn-1-yl)-3-methyl-N-(2-((R)-1-methylpyrrolidin-2-yl)-1H-pyrrolo[3,2-c]pyridin-6-yl)-1H-indazole-6-carboxamide] returned an inhibition at 0.01 µM of 50 to 75%, an inhibition at 0.1 µM of 50 to 75% and an inhibition at 1 µM of at least 75%.
